The values below come from patent US11667649B2, “Heteroaromatic macrocyclic ether chemotherapeutic agents” (Nuvalent, Inc., priority 2020, dated 2023).

This test relates to TPM3-NTRK1-wt IC50 / primary target (e.g. CD74-ROS1-wt) IC50, Ba/F3 cells. The test is described as follows: Cell assay TRKA selectivity (TRKA potency divided by primary target potency). Type of test: cell-based. Particulars: for TPM3-NTRK1-wt/CD74-ROS1-G2032R: TRKA selectivity ratio: TPM3-NTRK1-wt IC50 / CD74-ROS1-G2032R IC50, Ba/F3 cells; for TPM3-NTRK1-wt/CD74-ROS1-wt: TRKA selectivity ratio: TPM3-NTRK1-wt IC50 / CD74-ROS1-wt IC50, Ba/F3 cells; for TPM3-NTRK1-wt/EML4-ALK-L1196M-G1202R: TRKA selectivity ratio: TPM3-NTRK1-wt IC50 / EML4-ALK-L1196M-G1202R IC50, Ba/F3 cells; for TPM3-NTRK1-wt/EML4-ALK-wt: TRKA selectivity ratio: TPM3-NTRK1-wt IC50 / EML4-ALK-wt IC50, Ba/F3 cells. From the text: Genes encoding CD74-ROS1 wild-type (wt), CD74-ROS1 G2032R, CD74-ROS1 S1986F, CD74-ROS1 L2026M, CD74-ROS1 D2033N, EML4-ALK wt (variant 1), EML4-ALK G1202R (variant 1), EML4-ALK L1196M/G1202R (variant 1), EML4-ALK G1202R/G1269A (variant 1), EML4-ALK G1202R/L1198F (variant 1), and TPM3-TRKA were synthesized at GeneRay, cloned into the retroviral construct pMSCV-puro (Biovector), and packaged into retroviral particles. The virus was used to infect Ba/F3 cells (RIKEN) at multiplicity of infection=1 for 1 day. Infected cells were rescued in media (RPMI-1640 with 10% fetal bovine serum and 1% streptomycin and penicillin) supplemented with mouse IL-3 (10 ng/mL) for 2 days, and stable cell lines were selected by IL-3 withdrawal and puromycin (0.8 μg/mL) for 7 days. Monoclones were selected by single-cell dilution in IL-3-free medium containing puromycin (0.8 μg/mL). Transformation of desired genes was confirmed by Sanger sequencing and western blot using the following antibodies: ROS1 (CST #3287), ALK (CST #3633), and pan-TRK (Abcam #76291).
Stable cells were plated at 1,000 cells/well (40 μL) in a 384-well plate for 1 day. Test compounds (40 nL) were then added in a 3-fold dilution series using the TECAN EVO200 liquid handler and incubated for 72 hours. Plates were equilibrated at room temperature for 15 minutes followed by addition of 40 μL CellTiter-Glo reagent (Promega). Luminescence was measured on a plate reader. Half-maximal inhibitory concentration (IC50) was calculated from percent inhibition and inhibitor concentration using four-parameter logistic regression. […] Exemplary data is given in Table 4 (nd is not determined).
TRKA selectivity was calculated by dividing a compound's TRKA potency by its primary target potency (e.g. TPM3-NTRK1-wt IC50/CD74-ROS1-wt IC50). Compound selectivity can be interpreted by binning ratio values: bin A for very high selectivity, ratio>30-fold; bin B for high selectivity, ratio>10-fold; bin C for moderate selectivity, ratio≥1; and bin D for low selectivity, ratio<1. […] (nd=not determined).

In the case of `CCn1ncc2c1-c1cnc(N)c(c1)O[C@H](C)c1cc(F)ccc1-c1nn(C)cc1C2` [Example 1, (19R)-3-ethyl-16-fluoro-10,19-dimethyl-20-oxa-3,4,10,11,23-pentaazapentacyclo[19.3.1.0^2,^60^8,^12.0^13,^18]pentacosa-1(24),2(6),4,8,11,13,15,17,21(25),22-decaen-22-amine], the TPM3-NTRK1-wt/CD74-ROS1-G2032R result is on record as “A (bin A for very high selectivity, ratio>30-fold)”; the TPM3-NTRK1-wt/CD74-ROS1-wt entry is “A (bin A for very high selectivity, ratio>30-fold)”; the TPM3-NTRK1-wt/EML4-ALK-L1196M-G1202R result is given as “A (bin A for very high selectivity, ratio>30-fold)”; the TPM3-NTRK1-wt/EML4-ALK-wt entry is on record as “A (bin A for very high selectivity, ratio>30-fold)”.
Regarding `CC1Oc2cc(cnc2N)-c2c(cnn2C)Cc2cnn(C)c2-c2ccc(F)cc21` (stereo not drawn) [Example 2, 16-fluoro-3,11,19-trimethyl-20-oxa-3,4,10,11,23-pentaazapentacyclo[19.3.1.0^2,^6.0^8,^12.0^13,^18]pentacosa-1(24),2(6),4,8(12),9,13,15,17,21(25),22-decaen-22-amine], the TPM3-NTRK1-wt/CD74-ROS1-G2032R entry is on record as “B (bin B for high selectivity, ratio>10-fold)”; the TPM3-NTRK1-wt/CD74-ROS1-wt result is recorded as “A (bin A for very high selectivity, ratio>30-fold)”; the TPM3-NTRK1-wt/EML4-ALK-L1196M-G1202R result is listed as “D (bin D for low selectivity, ratio<1)”; the TPM3-NTRK1-wt/EML4-ALK-wt result is “B (bin B for high selectivity, ratio>10-fold)”.
Consider `CCn1ncc2c1-c1cnc(N)c(c1)O[C@H](C)c1cc(F)ccc1-c1ncccc1C2` [Example 3, (20R)-3-ethyl-17-fluoro-20-methyl-21-oxa-3,4,12,24-tetraazapentacyclo[20.3.1.0^2,^6.0^8,^13.0^14,^19]hexacosa-1(25),2(6),4,8(13),9,11,14,16,18,22(26),23-undecaen-23-amine], for which the TPM3-NTRK1-wt/CD74-ROS1-G2032R result is on record as “A (bin A for very high selectivity, ratio>30-fold)”; the TPM3-NTRK1-wt/EML4-ALK-L1196M-G1202R entry is “B (bin B for high selectivity, ratio>10-fold)”; the TPM3-NTRK1-wt/EML4-ALK-wt entry is listed as “A (bin A for very high selectivity, ratio>30-fold)”.
Turning to `CCn1ncc2c1-c1ccc(F)cc1[C@@H](C)Oc1cc(cnc1N)-c1c(cnn1C)C2` [Example 4, (19R)-11-ethyl-16-fluoro-3,19-dimethyl-20-oxa-3,4,10,11,23-pentaazapentacyclo[19.3.1.0^2,^6.0^8,^12.0^13,^18]pentacosa-1(24),2(6),4,8(12),9,13,15,17,21(25),22-decaen-22-amine], the TPM3-NTRK1-wt/CD74-ROS1-G2032R entry is on record as “B (bin B for high selectivity, ratio>10-fold)”; the TPM3-NTRK1-wt/CD74-ROS1-wt entry is “A (bin A for very high selectivity, ratio>30-fold)”; the TPM3-NTRK1-wt/EML4-ALK-L1196M-G1202R result is listed as “D (bin D for low selectivity, ratio<1)”; the TPM3-NTRK1-wt/EML4-ALK-wt result is “C (bin C for moderate selectivity, ratio≥1)”.
Consider `C[C@H]1Oc2cc(cnc2N)-c2c(cnn2C2CCC2)Cc2cnn(C)c2-c2ccc(F)cc21` [Example 5, (19R)-3-cyclobutyl-16-fluoro-11,19-dimethyl-20-oxa-3,4,10,11,23-pentaazapentacyclo[19.3.1.0^2,^6.0^8,^12.0^13,^18]pentacosa-1(24),2(6),4,8(12),9,13,15,17,21(25),22-decaen-22-amine], for which the TPM3-NTRK1-wt/CD74-ROS1-G2032R result was “A (bin A for very high selectivity, ratio>30-fold)”; the TPM3-NTRK1-wt/CD74-ROS1-wt entry is recorded as “A (bin A for very high selectivity, ratio>30-fold)”; the TPM3-NTRK1-wt/EML4-ALK-L1196M-G1202R entry is listed as “A (bin A for very high selectivity, ratio>30-fold)”; the TPM3-NTRK1-wt/EML4-ALK-wt entry is given as “A (bin A for very high selectivity, ratio>30-fold)”.
In the case of `CCc1c(C#N)nn2c1-c1cnc(N)c(c1)O[C@H](C)c1cc(F)ccc1-c1nn(C)cc1C2` [Example 6, (19R)-22-amino-3-ethyl-16-fluoro-10,19-dimethyl-20-oxa-5,6,10,11,23-pentaazapentacyclo[19.3.1.0^2,^6.0^8,^12.0^13,^18]pentacosa-1(24),2,4,8,11,13,15,17,21(25),22-decaene-4-carbonitrile], the TPM3-NTRK1-wt/CD74-ROS1-G2032R entry is given as “A (bin A for very high selectivity, ratio>30-fold)”; the TPM3-NTRK1-wt/CD74-ROS1-wt result is “A (bin A for very high selectivity, ratio>30-fold)”; the TPM3-NTRK1-wt/EML4-ALK-L1196M-G1202R result is “C (bin C for moderate selectivity, ratio≥1)”; the TPM3-NTRK1-wt/EML4-ALK-wt entry is reported as “A (bin A for very high selectivity, ratio>30-fold)”.
In the case of `Cn1cc2c(n1)-c1ccc(F)cc1COc1cc(cnc1N)-c1c(cnn1C1CCC1)C2` [Example 7, 3-cyclobutyl-16-fluoro-10-methyl-20-oxa-3,4,10,11,23-pentaazapentacyclo[19.3.1.0^2,^6.0^8,^12.0^13,^18]pentacosa-1(24),2(6),4,8,11,13,15,17,21(25),22-decaen-22-amine], the TPM3-NTRK1-wt/CD74-ROS1-G2032R entry is “A (bin A for very high selectivity, ratio>30-fold)” and the TPM3-NTRK1-wt/EML4-ALK-L1196M-G1202R entry is given as “A (bin A for very high selectivity, ratio>30-fold)”.
For the compound `CCn1ncc2c1-c1cnc(N)c(c1)OCc1cc(F)ccc1-c1ncccc1C2` [Example 8, 3-ethyl-17-fluoro-21-oxa-3,4,12,24-tetraazapentacyclo[20.3.1.0^2,^6.0^8,^13.0^14,^19]hexacosa-1(25),2(6),4,8(13),9,11,14,16,18,22(26),23-undecaen-23-amine], the TPM3-NTRK1-wt/CD74-ROS1-G2032R result is “A (bin A for very high selectivity, ratio>30-fold)”; the TPM3-NTRK1-wt/CD74-ROS1-wt result is given as “A (bin A for very high selectivity, ratio>30-fold)”; the TPM3-NTRK1-wt/EML4-ALK-L1196M-G1202R entry is listed as “B (bin B for high selectivity, ratio>10-fold)”; the TPM3-NTRK1-wt/EML4-ALK-wt result is “A (bin A for very high selectivity, ratio>30-fold)”.
As for `C[C@H]1Oc2cc(cnc2N)-c2c(C#N)cnn2Cc2cn(C)nc2-c2ccc(F)cc21` [Example 9, (19R)-22-amino-16-fluoro-10,19-dimethyl-20-oxa-5,6,10,11,23-pentaazapentacyclo[19.3.1.0^2,^6.0^8,^12.0^13,^18]pentacosa-1(24),2,4,8,11,13,15,17,21(25),22-decaene-3-carbonitrile], the TPM3-NTRK1-wt/CD74-ROS1-G2032R result is on record as “B (bin B for high selectivity, ratio>10-fold)”; the TPM3-NTRK1-wt/CD74-ROS1-wt entry is reported as “A (bin A for very high selectivity, ratio>30-fold)”; the TPM3-NTRK1-wt/EML4-ALK-L1196M-G1202R result is given as “C (bin C for moderate selectivity, ratio≥1)”; the TPM3-NTRK1-wt/EML4-ALK-wt entry was “A (bin A for very high selectivity, ratio>30-fold)”.
In the case of `C[C@H]1Oc2cc(cnc2N)-c2c(C#N)ncn2Cc2cnccc2-c2ccc(F)cc21` [Example 10, (20R)-23-amino-17-fluoro-20-methyl-21-oxa-4,6,10,24-tetraazapentacyclo[20.3.1.0^2,^6.0^8,^13.0^14,^19]hexacosa-1(25),2,4,8(13),9,11,14,16,18,22(26),23-undecaene-3-carbonitrile], the TPM3-NTRK1-wt/CD74-ROS1-G2032R result was “A (bin A for very high selectivity, ratio>30-fold)”; the TPM3-NTRK1-wt/CD74-ROS1-wt result is given as “D (bin D for low selectivity, ratio<1)”; the TPM3-NTRK1-wt/EML4-ALK-L1196M-G1202R entry is “C (bin C for moderate selectivity, ratio≥1)”; the TPM3-NTRK1-wt/EML4-ALK-wt result is reported as “A (bin A for very high selectivity, ratio>30-fold)”.
On to `C[C@H]1Oc2cc(cnc2N)-c2c(C#N)ncn2Cc2ccncc2-c2ccc(F)cc21` [Example 11, (20R)-23-amino-17-fluoro-20-methyl-21-oxa-4,6,11,24-tetraazapentacyclo[20.3.1.0^2,^6.0^8,^13.0^14,^19]hexacosa-1(25),2,4,8(13),9,11,14,16,18,22(26),23-undecaene-3-carbonitrile], for which the TPM3-NTRK1-wt/CD74-ROS1-G2032R entry was “A (bin A for very high selectivity, ratio>30-fold)”; the TPM3-NTRK1-wt/CD74-ROS1-wt entry was “A (bin A for very high selectivity, ratio>30-fold)”; the TPM3-NTRK1-wt/EML4-ALK-L1196M-G1202R entry is “C (bin C for moderate selectivity, ratio≥1)”; the TPM3-NTRK1-wt/EML4-ALK-wt entry is “A (bin A for very high selectivity, ratio>30-fold)”.
As to `C[C@H]1Oc2cc(cnc2N)-c2c(C#N)ncn2Cc2cccnc2-c2ccc(F)cc21` [Example 12, (20R)-23-amino-17-fluoro-20-methyl-21-oxa-4,6,12,24-tetraazapentacyclo[20.3.1.0^2,^6.0^8,^13.0^14,^19]hexacosa-1(25),2,4,8(13),9,11,14,16,18,22(26),23-undecaene-3-carbonitrile], the TPM3-NTRK1-wt/CD74-ROS1-G2032R entry is “A (bin A for very high selectivity, ratio>30-fold)”; the TPM3-NTRK1-wt/CD74-ROS1-wt result was “A (bin A for very high selectivity, ratio>30-fold)”; the TPM3-NTRK1-wt/EML4-ALK-L1196M-G1202R result was “A (bin A for very high selectivity, ratio>30-fold)”; the TPM3-NTRK1-wt/EML4-ALK-wt entry is listed as “A (bin A for very high selectivity, ratio>30-fold)”.
